Experimental data as given in patent US20050288355A1, “Combination therapy wherein a serotonin reuptake inhibitor is used” (priority 2002, published 2005).

Tests used:
[1] = tested on: 5-HT levels in rat ventral hippocampus; test: Microdialysis of brain serotonin levels, ventral hippocampus; assay type: in vivo
Experimental: (§1) Male albino rats of a Wistar-derived strain (285-320 g; Harlan, Zeist, The Netherlands) were used for the experiments. Upon surgery, rats were housed individually in plastic cages (35×35×40 cm), and had free access to food and water. Animals were kept on a 12 h light schedule (light on 7:00 a.m.). The experiments are concordant with the declarations of Helsinki and were approved by the animal care committee of the faculty of mathematics and natural science of the University of Groningen.
Microdialysis of brain serotonin levels was performed using home made I-shaped probes, made of polyacrylonitrile/sodium methyl sulfonate copolymer dialysis fiber (i.d. 220 μn, o.d. […], AN 69, Hospal, Italy). Preceding surgery rats were anaesthetised using isoflurane (O2/N2O; 300/300 ml/min). Lidocaine-HCl, 10% (m/v) was used for local anaesthesia. Rats were placed in a stereotaxic frame (Kopf, USA), and probes were inserted into Ventral Hippcampus (V. Hippo, L+4.8 mm, IA: +3.7 mm, V: −8.0 mm) and median prefrontal cortex (PFC, L −0.9 mm; AP: +3.5 mm relative to bregma; V: −6.0 mm (Paxinos and Watson, 1982). After insertion, probes were secured with dental cement.
Rats were allowed to recover for at least 24 h. Probes were perfused with artificial cerebrospinal fluid containing 147 mM NaCl, 3.0 mM KCl, 1.2 mM CaCl2, and 1.2 mM MgCl2, at a flow-rate of 1.5 μl/min (Harvard apparatus, South Natick, Ma., USA). 15 minute microdialysis samples were collected in HPLC vials containing 7.5 μl 0.02 M acetic acid for serotonin analysis.
(§2) Twenty-μl microdialysate samples were injected via an autoinjector (CMA/200 refrigerated microsampler, CMA, Sweden) onto a 100×2.0 mm C18 Hypersil 3 μm column (Bester, Amstelveen, the Netherlands) and separated with a mobile phase consisting of 5 g/L di-ammoniumsulfate, 500 mg/L EDTA, 50 mg/L heptane sulphonic acid, 4% methanol v/v, and 30 μl/L of triethylamine, pH 4.65 at a flow of 0.4 ml/min (Shimadzu LC-10 AD). 5-HT was detected amperometrically at a glassy carbon electrode at 500 mV vs Ag/AgCl (Antec Leyden, Leiden, The Netherlands). The detection limit was 0.5 fmol 5-HT per 20 μl sample (signal to noise ratio 3).
Four consecutive microdialysis samples with less then 20% variation were taken as control and set at 100%. Data are presented as percentages of control level (mean±S.E.M.) in time. Statistical analysis was performed using Sigmastat for Windows (SPSS, Jandel Corporation). Treatments were compared versus controls using two way analysis of variance (ANOVA) for repeated measurements, followed by Student Newman Keuls test. Level of significance level was set at p<0.05.

[2] = tested on: 5-HT levels in rat prefrontal cortex; test: Microdialysis of brain serotonin levels, prefrontal cortex; assay type: in vivo; conditions: PFC; 2 mg/kg s.c. co-administered with citalopram 10 μmol/kg s.c.; P=0.048
Experimental: as §1
Microdialysis of brain serotonin levels was performed using home made I-shaped probes, made of polyacrylonitrile/sodium methyl sulfonate copolymer dialysis fiber (i.d. 220 μn, o.d. 0.31 μm, AN 69, Hospal, Italy). Preceding surgery rats were anaesthetised using isoflurane (O2/N2O; 300/300 ml/min). Lidocaine-HCl, 10% (m/v) was used for local anaesthesia. […]
as §2, with “The detection limit was 0.5 fmol 5-HT per 20 μl sample (signal to noise ratio 3).” left out

[3] = tested on: 5-HT in the raphe nuclei / forebrain; conditions: cited from earlier work

NCCCP(=O)(O)CC1CCCCC1 [CGP 46381]
response on 5-HT levels with citalopram ([1]; 0.5 mg/kg co-administered with citalopram 10 μmol/kg, treatment p=0.04): augmented response
response on 5-HT levels with citalopram ([1]; 2 mg/kg co-administered with citalopram 10 μmol/kg, treatment p=0.10, treatment vs. time 0.001): augmented response
effect on 5-HT levels, given alone ([1]; 10 mg/kg s.c., without citalopram): did not show any effect

NCC(CP(=O)(O)O)c1ccc(Cl)cc1 (centres unmarked) [Phaclofen]
5-HT levels compared to citalopram treatment alone ([1]; 2 mg/kg s.c. co-administered with citalopram 10 μmol/kg s.c., P=0.021, t=75 to t=135): enhanced levels of 5-HT
effects of citalopram on extracellular 5-HT levels ([1]; administered either centrally into the hippocampus or systemically, with citalopram): significantly increase
effect on basal levels of 5-HT ([1]; local infusion (50 μM) in ventral hippocampus, P=0.26): did not have any effect
5-HT levels after systemic citalopram during local administration ([1]; local phaclofen 50 μM, citalopram 10 μmol/kg s.c., P=0.0068, significant from t=75 to 150 min): augmented levels of 5-HT
5-HT levels compared to citalopram treatment alone [2]: enhanced levels of 5-HT
effect on 5-HT levels when administered by itself ([3]; raphe or forebrain): devoid of effect

NCC(O)(CS(=O)(=O)O)c1ccc(Cl)cc1 (centres unmarked) [2-hydroxysaclofen]
effects on 5-HT levels with citalopram ([1]; 2 mg/kg s.c. simultaneous with citalopram 10 μmol/kg s.c., P=0.046): augmented effects on 5-HT levels

NCC(CC(=O)O)c1ccc(Cl)cc1 (centres unmarked) [baclofen]
5-HT in the forebrain ([3]; forebrain): reduction
5-HT in the raphe ([3]; raphe): decrease

CN1CCc2cc3c(cc2[C@H]1[C@@H]1OC(=O)c2c1ccc1c2OCO1)OCO3 [bicuculline, (+)-Bicuculline]
increase of serotonin levels ([1]; local administration of 50 μM in ventral hippocampus, significant from t=45 to 90 min): about 150%

NCc1cc(=O)[nH]o1 [muscimol]
5-HT cell activity & 5-HT release ([3]; raphe nuclei): reduced
